Laboratory results taken from patent US20100035753A1, “Fungicidal Mixtures Comprising Substituted 1-methylpyrazol-4-ylcarboxanilides” (BASF SE, priority 2007, published 2010).
Where two headings read alike, the source gives them in different places.

Legend:
[1] = test system: Phytophthora infestans; assay type: cell-based
[2] = test system: Pyricularia oryzae; assay type: cell-based; settings: 0.25 ppm
[3] = test system: Phytophthora infestans; assay type: cell-based; remark: listed apart in the source
[4] = test system: Botrytis cinerea; experiment: Use Example 2: preventative control of grey mold on leaves of green pepper; assay type: in vivo; settings: 4 ppm
Description: (§1) The active compounds, separately or jointly, were prepared as a stock solution comprising 25 mg of active compound which was made up to 10 ml using a mixture of acetone and/or DMSO and the emulsifier Uniperol® EL (wetting agent having an emulsifying and dispersing action based on ethoxylated alkylphenols) in a ratio by volume of solvent/emulsifier of 99:1. The mixture was then made up to 100 ml with water. This stock solution was diluted with the solvent/emulsifier/water mixture described to give the concentration of active compound stated below.
(§2) The visually determined percentages of infected leaf areas were converted into efficacies in % of the untreated control:
(§3) The efficacy (E) is calculated as follows using Abbot's formula: […]
(§4) α corresponds to the fungicidal infection of the treated plants in % and
(§5) β corresponds to the fungicidal infection of the untreated (control) plants in % […]
(§6) The expected efficacies of active compound combinations were determined using Colby's formula (Colby, S. R. “Calculating synergistic and antagonistic responses of herbicide combinations”, Weeds, 15, pp. 20-22, 1967) and compared with the observed efficacies. […]
Young seedlings of green pepper were grown in pots to the 2 to 3 leaf stage. […] After 5 days at 22 to 24° C. and a relative humidity close to 100% the extent of fungal attack on the leaves was visually assessed as % diseased leaf area.

[5] = test system: Phytophthora infestans; assay type: in vivo
[6] = test system: Puccinia recondita; experiment: Use Example 5: curative control of brown rust on wheat; assay type: in vivo
Description: as §1, §2, §3, §4
(§7) β corresponds to the fungicidal infection of the untreated (control) plants in %
(§8) An efficacy of 0 means that the infection level of the treated plants corresponds to that of the untreated control plants; an efficacy of 100 means that the treated plants were not infected.
(§9) The expected efficacies of active compound combinations were determined using Colby's formula (Colby, S. R. “Calculating synergistic and antagonistic responses of herbicide combinations”, Weeds, 15, pp. 20-22, 1967) and compared with the observed efficacies.
(§10) Colby's formula: E=x+y−x·y/100 • E expected efficacy, expressed in % of the untreated control, when using the mixture of the active compounds A and B at the concentrations a and b • x efficacy, expressed in % of the untreated control, when using the active compound A at the concentration a • y efficacy, expressed in % of the untreated control, when using the active compound B at the concentration b
The first two developed leaves of pot-grown wheat seedling were dusted with spores of Puccinia recondita. To ensure the success the artificial inoculation, the plants were transferred to a humid chamber without light and a relative humidity of 95 to 99% and 20 to 22° C. for 24 h. The next day the plants were sprayed to run-off with an aqueous suspension, containing the concentration of active ingredient or their mixture as described below. The plants were allowed to air-dry. Then the trial plants were cultivated for 8 days in a greenhouse chamber at 22-26° C. and a relative humidity between 65 and 70%. The extent of fungal attack on the leaves was visually assessed as % diseased leaf area.

[7] = test system: Phakopsora pachyrhizi; experiment: Use Example 8: curative control of soy bean rust on soy beans; assay type: in vivo; settings: 0.25 ppm
Description: as §1, §2, §3, §4, §5, §6
Leaves of pot-grown soy bean seedlings were inoculated with spores of Phakopsora pachyrhizi. […] The extent of fungal attack on the leaves was visually assessed as % diseased leaf area.

[8] = test system: Septoria tritici
[9] = test system: Ramularia collo-cygni/Physiological leaf spots; experiment: Control of phytopathogenic fungi in barley (statement in the description); assay type: in vivo; settings: solo or in combination with an active compound II
[10] = test system: Alternaria solani; experiment: Use Example 1: preventative fungicidal control of early blight on tomatoes; assay type: in vivo; settings: 0.25 ppm
Description: as §1, §2, §3, §4, §7, §8, §9, §10
Young seedlings of tomato plants were grown in pots. […] After 5 days at 20 to 22° C. and a relative humidity close to 100%, the extent of fungal attack on the leaves was visually assessed as % diseased leaf area.

[11] = test system: Pyrenophora teres; experiment: Use Example 7: control of net blotch on barley; assay type: in vivo, Pyrenophora (syn. Drechslera) teres
Description: as §1, §2, §3, §6
The first fully developed leaves of pot grown barley plants were sprayed to run-off with an aqueous suspension, containing the concentration of active ingredient or their mentioned in the table below. […] After 6 days of cultivation at 20-24° C. and a relative humidity close to 70%, the extent of fungal attack on the leaves was visually assessed as % leaf area.

[12] = test system: Blumeria graminis f. sp. tritici; experiment: Use Example 4: control of powdery mildew on wheat; assay type: in vivo; settings: 0.25 ppm
Description: as §1, §2, §3, §6
The first fully developed leaves of pot grown wheat were sprayed to run-off with an aqueous suspension, containing the concentration of active ingredient or their mixture mentioned in the table below. […] After cultivation in the greenhouse for 7 days at 22-26° C. and a relative humidity between 60 to 90% the extent of fungal attack on the leaves was visually assessed as % diseased leaf area.

[13] = test system: Puccinia recondita; experiment: Use Example 6: preventative control of brown rust on wheat; assay type: in vivo; settings: 0.25 ppm
Description: as §1, §2, §3
α corresponds to the fungicidal infection of the treated plants in % and […]
as §6
The first two developed leaves of pot-grown wheat seedling were sprayed to run-off with an aqueous suspension, containing the concentration of active ingredient or their as described below. […] The extent of fungal attack on the leaves was visually assessed as % diseased leaf area.

[14] = test system: Botrytis cinerea; experiment: Use Example 9.2: activity against grey mold in the microtiterplate test; assay type: cell-based
[15] = test system: Pyricularia oryzae; assay type: cell-based
[16] = test system: Septoria tritici; experiment: Use Example 13: control of Septoria tritici; assay type: cell-based

With `COC(=O)[C@@H](C)N(C(=O)Cc1ccccc1)c1c(C)cccc1C` [Benalaxyl-M, benalaxyl-M, reference compound] the “Observed activity (% infection)” value ([1]; 16 ppm) was 18% and the “Observed activity (%)” value [2] was 0%.

`C[N+]1(C)CCCCC1` [Mepiquat-chloride] was tested, and the “Observed activity (% infection)” value ([3]; 63 ppm) was 14%.

In the case of `Cc1nn(C)c(F)c1C(=O)Nc1ccccc1C(C)CC(C)C` (centres unmarked) [N-(2-(1,3-dimethylbutyl)-phenyl)-1,3-dimethyl-5-fluoro-1H-pyrazole-4-carboxylic acid amide], the “Observed efficacy (% of untreated control)” value [4] is reported as 0%, the “Observed activity (% infection)” value ([5]; 1 ppm) is reported as 0% and the “Observed activity (% infection)” value ([5]; 4 ppm) is reported as 0%. The “Observed efficacy (% of untreated control)” value ([6]; 0.25 ppm) was 0%, the “Observed efficacy (% of untreated control)” value ([6]; 1 ppm) was 0% and the “Observed efficacy (% of untreated control)” value [7] was 60%. The Observed activity ([8]; 0.004 ppm) was 1%.

With `Cn1cc(C(=O)Nc2ccc(F)cc2-c2ccc(Cl)c(Cl)c2)c(C(F)F)n1` [N-(3′,4′-dichloro-5-fluorobiphenyl-2-yl)-1-methyl-3-difluoromethyl-1H-pyrazole-4-carboxamide] the “activity against Ramularia collo-cygni/Physiological leaf spots” value [9] was “excellent activity”.

For `CCN(C)C=Nc1cc(C)c(Oc2ccc(Cl)c(C(F)(F)F)c2)cc1C` [N′-(4-(4-chloro-3-trifluoromethyl-phenoxy)-2,5-dimethyl-phenyl)-N-ethyl-N-methyl formamidine], the “Observed fungicidal efficacy (% of untreated control)” value [10] was 22%, the “Observed activity (% infection)” value ([5]; 1 ppm) was 0% and the “Observed efficacy (% of untreated control)” value ([11]; 0.25 ppm) was 25%. The “Observed activity (% infection)” value ([1]; 4 ppm) was 33%.

With `CCN(C)C=Nc1cc(C)c(Oc2ccc(F)c(C(F)(F)F)c2)cc1C` [N′-(4-(4-fluoro-3-trifluoromethyl-phenoxy)-2,5-dimethyl-phenyl)-N-ethyl-N-methyl formamidine] the “Observed fungicidal efficacy (% of untreated control)” value [10] was 0%, the “Observed activity (% infection)” value ([5]; 16 ppm) was 0% and the “Observed efficacy (% of untreated control)” value [12] was 38%. The “Observed efficacy (% of untreated control)” value ([6]; 0.25 ppm) was 67% and the “Observed efficacy (% of untreated control)” value ([11]; 1 ppm) was 13%.

For `CCC(=O)C1=C([O-])CC(C(=O)[O-])CC1=O.[Ca+2]` (centres unmarked) [Prohexadione-Ca], the “Observed activity (% infection)” value ([3]; 16 ppm) was 17%.

For `CCOC(=O)C1CC(=O)C(=C(O)C2CC2)C(=O)C1` (centres unmarked) [Trinexapac-ethyl], the “Observed activity (% infection)” value ([3]; 63 ppm) was 39%.

For `Clc1ccc(C2(Cn3cncn3)OCCO2)c(Cl)c1` [azaconazole], the “Observed fungicidal efficacy (% of untreated control)” value [10] was 0%, the “Observed efficacy (% of untreated control)” value [4] was 0% and the “Observed activity (% infection)” value ([5]; 4 ppm) was 0%. For the same molecule, the “Observed efficacy (% of untreated control)” value ([6]; 0.25 ppm) was 0%, the “Observed efficacy (% of untreated control)” value [13] was 0% and the Observed activity ([8]; 0.016 ppm) was 19%.

With `O=C(NCCc1ncc(C(F)(F)F)cc1Cl)c1ccccc1C(F)(F)F` [fluopyram] the “Observed activity (%)” value ([14]; 0.004 ppm) was 4%.

For `Clc1cccc(C(Cl)(Cl)Cl)n1` [nitrapyrin], the “Observed activity (%)” value ([14]; 0.016 ppm) was 10%.

In the case of `CC1CCCCN1CCCOC(=O)c1ccc(Cl)c(Cl)c1` (centres unmarked) [piperalin], the “Observed activity (%)” value ([14]; 0.016 ppm) is reported as 12%.

In the case of `CCC(=O)C1=C([O-])CC(C(=O)[O-])CC1=O.[Ca+2]` (centres unmarked) [prohexadione-Ca], the “Observed activity (%)” value ([15]; 0.25 ppm) is reported as 0% and the “Observed fungicidal efficacy (%)” value ([16]; 0.25 ppm) is reported as 0%.

In the case of `CCOC(=O)C1CC(=O)C(=C(O)C2CC2)C(=O)C1` (centres unmarked) [trinexapac-ethyl], the “Observed activity (%)” value ([15]; 4 ppm) is reported as 2% and the “Observed fungicidal efficacy (%)” value ([16]; 4 ppm) is reported as 2%.
